According to paper PMC8582298 (ChemMedChem, 2020):

Tests used:
PP1 [1] = target: T1, PP1 (Oryctolagus cuniculus, UniProt P62139); settings: literature values; cited from earlier work
PP1 [2] = target: T1, PP1; assay: Malachite green assay, IC50 determination, PP1; type: biochemical; settings: for PP1 versus PP2A preference (in words): based on IC50 values; for IC50 PP1: malachite green assay, phosphopeptide K-R-pT-I-R-R 40 μM, 30 °C, three trials
PP2A = PP2A (Homo sapiens, UniProt P67775); assay: Malachite green assay, IC50 determination, PP2A; type: biochemical
PP2A, sequence (P67775 whole entry): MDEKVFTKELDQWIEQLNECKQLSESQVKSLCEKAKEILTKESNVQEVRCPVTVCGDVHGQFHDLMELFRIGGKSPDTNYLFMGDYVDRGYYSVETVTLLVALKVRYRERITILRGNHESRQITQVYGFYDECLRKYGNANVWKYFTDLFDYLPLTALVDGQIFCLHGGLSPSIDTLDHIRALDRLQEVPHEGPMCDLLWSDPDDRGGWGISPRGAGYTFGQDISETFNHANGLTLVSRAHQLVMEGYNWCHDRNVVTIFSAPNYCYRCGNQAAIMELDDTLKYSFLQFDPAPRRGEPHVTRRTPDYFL

T1 sequence (P62139 whole entry): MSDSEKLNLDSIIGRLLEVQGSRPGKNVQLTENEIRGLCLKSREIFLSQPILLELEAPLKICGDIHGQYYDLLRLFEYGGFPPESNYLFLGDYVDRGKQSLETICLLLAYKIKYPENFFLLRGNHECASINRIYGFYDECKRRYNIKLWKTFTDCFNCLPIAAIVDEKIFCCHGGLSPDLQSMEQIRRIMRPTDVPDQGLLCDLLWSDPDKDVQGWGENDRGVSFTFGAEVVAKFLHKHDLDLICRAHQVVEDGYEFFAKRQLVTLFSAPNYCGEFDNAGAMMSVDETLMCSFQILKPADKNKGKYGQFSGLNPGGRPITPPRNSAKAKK

SMILES | Selectivity for PP1 over PP2A (PP1 [1]) | IC50 (PP1 [2]) [nM] | IC50 (PP2A) [nM] | PP1 versus PP2A preference (in words) (PP1 [2]) | IC50 PP1 (PP1 [2])
CO[C@H]([C@H](O)CC(=O)[C@@H](C)[C@@H](O)CC[C@@H](C)[C@@H]1O[C@]2(CC[C@@H](C)[C@H](CC[C@H](C)C(C)=O)O2)CC[C@@H]1C)[C@H](OC(=O)C[C@@H](O)C1=C(C)C(=O)OC1=O)C(C)C [TTM, tautomycin] | approximately 5 fold |  |  |  | 
C=C/C(=C/C(=O)C[C@H](C)C[C@@H](C)CC[C@H](O)[C@H](C)C(=O)C[C@@H](O)[C@H](C)[C@@H](C)OC(=O)C[C@@H](O)C1=C(C)C(=O)OC1=O)CC [TTN, tautomycetin, reference compound] | ~140 fold | 11 ± 1 | 490 |  | 
CC1=C([C@H](O)CC(=O)O[C@H](C)[C@@H](C)[C@H](O)CC(=O)[C@@H](C)[C@@H](O)CCCCCOC(=O)c2ccc(-c3ccccc3)cc2)C(=O)OC1=O [1e, (6S,7S,10R,11S,12R)-6,10-dihydroxy-12-(((R)-3-hydroxy-3-(4-methyl-2,5-dioxo-2,5-dihydrofuran-3-yl)propanoyl)oxy)-7,11-dimethyl-8-oxotridecyl [1,1’-biphenyl]-4-carboxylate] |  | 1500 ± 150 | 6800 | PP1 selective | nanomolar range
CC1=C([C@H](O)CC(=O)O[C@H](C)[C@@H](C)[C@H](O)CC(=O)[C@@H](C)[C@@H](O)CCCCCOC(=O)c2ccccc2)C(=O)OC1=O [1d, (6S,7S,10R,11S,12R)-6,10-dihydroxy-12-(((R)-3-hydroxy-3-(4-methyl-2,5-dioxo-2,5-dihydrofuran-3-yl)propanoyl)oxy)-7,11-dimethyl-8-oxotridecyl benzoate] |  | 34 ± 2 | 260 | PP1 selective | nanomolar range
